# Results taken from ChEMBL document CHEMBL5465560, “Selectivity Literature for EUbOPEN Chemogenomic Library” (2024).
# pIC50: −log10 of the molar value.
# Key:
# Insulin receptor = Insulin receptor (Homo sapiens, UniProt P06213); assay: Selectivity interaction (KinomeScan (DiscoverX)) EUB0001049a INSR; details: at 1 µM
# [1] = target: T1, Beta-adrenergic receptor kinase 1 (Homo sapiens) (UniProt P25098); assay: Selectivity interaction (KinomeScan (DiscoverX)) EUB0000229b ADRBK1; details: at 10 µM
# T1 sequence (whole entry): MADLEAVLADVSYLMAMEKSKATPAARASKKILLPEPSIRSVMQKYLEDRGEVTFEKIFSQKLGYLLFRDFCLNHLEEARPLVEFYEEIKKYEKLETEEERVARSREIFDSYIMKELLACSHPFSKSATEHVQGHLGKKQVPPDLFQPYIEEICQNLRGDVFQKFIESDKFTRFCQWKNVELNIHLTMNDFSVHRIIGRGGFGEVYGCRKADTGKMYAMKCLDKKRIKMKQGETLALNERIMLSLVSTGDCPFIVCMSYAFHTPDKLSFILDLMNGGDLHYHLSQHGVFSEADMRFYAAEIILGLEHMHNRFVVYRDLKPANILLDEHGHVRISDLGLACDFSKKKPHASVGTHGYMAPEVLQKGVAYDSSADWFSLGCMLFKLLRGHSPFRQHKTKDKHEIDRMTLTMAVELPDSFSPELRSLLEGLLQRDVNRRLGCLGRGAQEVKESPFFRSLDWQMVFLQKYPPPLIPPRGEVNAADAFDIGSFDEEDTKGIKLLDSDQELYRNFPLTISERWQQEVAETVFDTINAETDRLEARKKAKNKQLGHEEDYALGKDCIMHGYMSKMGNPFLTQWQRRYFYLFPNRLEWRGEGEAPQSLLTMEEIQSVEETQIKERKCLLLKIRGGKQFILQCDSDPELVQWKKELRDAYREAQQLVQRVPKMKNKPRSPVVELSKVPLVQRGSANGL
# Activated CDC42 kinase 1 = Activated CDC42 kinase 1 (Homo sapiens, UniProt Q07912); assay: Selectivity interaction (KinomeScan (DiscoverX)) EUB0000229b TNK2; details: at 10 µM
# [2] = target: T2, Mitogen-activated protein kinase kinase kinase 2 (Homo sapiens) (UniProt Q9Y2U5); assay: Selectivity interaction (KinomeScan (DiscoverX)) EUB0001079a MAP3K2; details: at 1 µM
# T2 sequence (whole entry): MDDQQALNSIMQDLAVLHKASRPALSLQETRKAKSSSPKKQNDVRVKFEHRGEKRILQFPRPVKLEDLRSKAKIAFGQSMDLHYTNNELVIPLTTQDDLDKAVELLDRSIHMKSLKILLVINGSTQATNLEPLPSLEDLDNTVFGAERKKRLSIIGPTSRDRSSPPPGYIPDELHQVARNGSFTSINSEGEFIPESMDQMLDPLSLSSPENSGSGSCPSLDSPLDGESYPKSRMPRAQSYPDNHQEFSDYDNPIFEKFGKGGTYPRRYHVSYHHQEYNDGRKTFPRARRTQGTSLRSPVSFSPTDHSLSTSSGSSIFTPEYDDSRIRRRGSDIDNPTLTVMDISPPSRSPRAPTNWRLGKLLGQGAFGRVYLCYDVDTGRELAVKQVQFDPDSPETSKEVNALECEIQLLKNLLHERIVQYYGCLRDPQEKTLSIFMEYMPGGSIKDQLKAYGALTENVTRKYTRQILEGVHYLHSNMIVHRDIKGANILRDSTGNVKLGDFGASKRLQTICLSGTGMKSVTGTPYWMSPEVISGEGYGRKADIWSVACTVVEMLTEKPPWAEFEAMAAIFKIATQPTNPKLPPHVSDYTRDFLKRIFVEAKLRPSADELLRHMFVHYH
# [3] = Selectivity interaction (Calcium Channel (L) receptor assay: rat brain ) EUB0000877a CACNA1C
# [4] = target: N6-adenosine-methyltransferase catalytic subunit (Homo sapiens) (UniProt Q86U44); assay: Selectivity interaction (Transferase panel (protein, RNA, and DNA methyltransferases. and EP300 (acetyltransferase))) EUB0000270b METTL3
# [5] = target: Tyrosine-protein kinase ABL1 (Homo sapiens, UniProt P00519); assay: Selectivity interaction (ActivX KiNativ screen (kinase selectivity in THP-1 cell lysates)) EUB0000639a ABL1; type: subcellular; details: lysate, at 0.04 µM
# [6] = target: Protein kinase C theta type (Homo sapiens, UniProt Q04759); assay: Selectivity interaction (KinomeScan (DiscoverX)) EUB0000092b PRKCQ; details: at 10 µM
# [7] = target: Serine/threonine-protein kinase 38-like (Homo sapiens) (UniProt Q9Y2H1); assay: Selectivity interaction (Ambit KINOMEscan and KiNATiv profiling in Jurkat cells) EUB0000090b STK38L; type: cell-based; details: at 1 µM
# [8] = target: T3, Myosin light chain kinase family member 4 (Homo sapiens) (UniProt Q86YV6); assay: Selectivity interaction (KinomeScan (DiscoverX)) EUB0000045b MYLK4
# T3 sequence (whole entry): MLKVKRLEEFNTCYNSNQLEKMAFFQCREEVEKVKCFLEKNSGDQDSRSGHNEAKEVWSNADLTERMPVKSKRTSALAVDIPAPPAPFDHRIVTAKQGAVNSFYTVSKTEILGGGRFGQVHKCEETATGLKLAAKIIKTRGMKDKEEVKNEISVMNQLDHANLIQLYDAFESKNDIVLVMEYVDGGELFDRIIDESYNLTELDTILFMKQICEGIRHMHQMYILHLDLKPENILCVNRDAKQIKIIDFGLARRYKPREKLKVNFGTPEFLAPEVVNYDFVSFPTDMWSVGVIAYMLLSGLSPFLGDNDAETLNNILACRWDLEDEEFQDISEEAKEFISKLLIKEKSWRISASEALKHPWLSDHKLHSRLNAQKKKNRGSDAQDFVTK
# [9] = target: T4, Phosphatidylinositol 5-phosphate 4-kinase type-2 gamma (Homo sapiens) (UniProt Q8TBX8); assay: Selectivity interaction (KinomeScan (DiscoverX)) EUB0000618a PIP4K2C; details: at 10 µM
# T4 sequence (whole entry): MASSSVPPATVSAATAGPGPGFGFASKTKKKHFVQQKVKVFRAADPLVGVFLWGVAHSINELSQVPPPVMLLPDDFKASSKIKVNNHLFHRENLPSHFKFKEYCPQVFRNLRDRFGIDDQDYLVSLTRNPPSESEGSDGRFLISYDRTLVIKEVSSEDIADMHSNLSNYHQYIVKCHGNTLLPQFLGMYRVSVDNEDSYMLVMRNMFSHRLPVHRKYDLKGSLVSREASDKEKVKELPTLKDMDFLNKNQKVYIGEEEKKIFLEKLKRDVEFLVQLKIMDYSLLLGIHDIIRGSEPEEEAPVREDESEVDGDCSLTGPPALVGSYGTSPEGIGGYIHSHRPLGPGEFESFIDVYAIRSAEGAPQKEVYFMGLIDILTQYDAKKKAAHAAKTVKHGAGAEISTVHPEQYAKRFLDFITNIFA
# [10] = target: Serine/threonine-protein kinase 26 (Homo sapiens, UniProt Q9P289); assay: Selectivity interaction (KinomeScan (DiscoverX)) EUB0001868a STK26; details: at 1 µM
# [11] = target: Bone morphogenetic protein receptor type-1B (Homo sapiens, UniProt O00238); assay: Selectivity interaction (LanthaScreen Eu Kinase Binding Assay) EUB0001632a BMPR1B; details: at 10 µM
# Bone morphogenetic protein receptor type-1B, sequence (O00238 whole entry): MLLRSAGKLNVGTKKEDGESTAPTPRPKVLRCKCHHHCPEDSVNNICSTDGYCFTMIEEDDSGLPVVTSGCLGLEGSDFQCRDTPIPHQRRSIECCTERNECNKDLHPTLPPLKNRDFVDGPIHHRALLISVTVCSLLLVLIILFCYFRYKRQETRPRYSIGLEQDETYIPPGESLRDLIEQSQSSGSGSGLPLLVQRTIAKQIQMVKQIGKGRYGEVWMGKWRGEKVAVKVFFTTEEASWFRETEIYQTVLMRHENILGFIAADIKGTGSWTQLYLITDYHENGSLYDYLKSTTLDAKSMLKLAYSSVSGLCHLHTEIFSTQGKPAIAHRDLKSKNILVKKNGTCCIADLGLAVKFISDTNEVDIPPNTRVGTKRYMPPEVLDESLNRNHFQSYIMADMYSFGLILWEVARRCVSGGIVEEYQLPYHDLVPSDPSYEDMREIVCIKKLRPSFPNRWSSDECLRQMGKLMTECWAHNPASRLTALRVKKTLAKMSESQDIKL
# N6-adenosine-methyltransferase catalytic subunit (Homo sapiens), sequence (Q86U44 whole entry): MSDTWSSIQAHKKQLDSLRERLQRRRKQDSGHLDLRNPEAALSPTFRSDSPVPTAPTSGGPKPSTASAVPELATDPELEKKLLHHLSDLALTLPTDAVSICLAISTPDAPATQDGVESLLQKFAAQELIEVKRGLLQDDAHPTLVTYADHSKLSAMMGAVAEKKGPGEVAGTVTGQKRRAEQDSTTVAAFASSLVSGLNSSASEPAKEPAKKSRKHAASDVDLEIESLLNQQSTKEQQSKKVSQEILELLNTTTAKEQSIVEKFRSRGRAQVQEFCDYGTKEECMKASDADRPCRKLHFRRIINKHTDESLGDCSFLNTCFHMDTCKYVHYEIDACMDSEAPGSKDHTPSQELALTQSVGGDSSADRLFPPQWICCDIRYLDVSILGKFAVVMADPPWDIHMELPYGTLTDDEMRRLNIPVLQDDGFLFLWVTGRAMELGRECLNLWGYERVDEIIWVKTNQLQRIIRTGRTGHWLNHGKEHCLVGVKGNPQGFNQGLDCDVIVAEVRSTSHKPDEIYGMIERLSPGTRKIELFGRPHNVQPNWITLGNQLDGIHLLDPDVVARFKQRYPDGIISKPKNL
# Serine/threonine-protein kinase 26, sequence (Q9P289 2-416 limits assumed): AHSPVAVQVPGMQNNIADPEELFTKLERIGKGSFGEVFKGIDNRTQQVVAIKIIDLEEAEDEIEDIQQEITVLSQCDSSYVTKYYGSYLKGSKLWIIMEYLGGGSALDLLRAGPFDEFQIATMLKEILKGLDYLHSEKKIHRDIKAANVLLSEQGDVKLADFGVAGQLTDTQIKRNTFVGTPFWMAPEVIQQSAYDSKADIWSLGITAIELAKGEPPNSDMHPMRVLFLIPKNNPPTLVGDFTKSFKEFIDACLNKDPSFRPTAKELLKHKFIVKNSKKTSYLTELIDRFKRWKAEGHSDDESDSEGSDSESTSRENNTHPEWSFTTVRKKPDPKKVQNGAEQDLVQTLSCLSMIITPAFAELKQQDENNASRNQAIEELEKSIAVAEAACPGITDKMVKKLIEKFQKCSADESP
# Serine/threonine-protein kinase 38-like (Homo sapiens), sequence (Q9Y2H1 2-464 limits assumed): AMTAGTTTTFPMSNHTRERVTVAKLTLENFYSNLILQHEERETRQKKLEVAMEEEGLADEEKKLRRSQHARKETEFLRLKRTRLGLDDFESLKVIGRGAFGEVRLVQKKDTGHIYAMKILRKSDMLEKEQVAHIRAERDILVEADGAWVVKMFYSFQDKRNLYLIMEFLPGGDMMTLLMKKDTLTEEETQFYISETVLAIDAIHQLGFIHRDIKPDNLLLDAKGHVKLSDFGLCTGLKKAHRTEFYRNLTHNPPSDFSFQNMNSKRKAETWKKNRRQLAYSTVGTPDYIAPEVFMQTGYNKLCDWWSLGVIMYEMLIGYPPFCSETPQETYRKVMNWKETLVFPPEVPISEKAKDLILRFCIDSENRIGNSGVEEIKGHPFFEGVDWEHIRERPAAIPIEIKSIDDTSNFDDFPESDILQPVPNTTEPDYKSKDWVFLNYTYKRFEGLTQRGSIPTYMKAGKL
# Activated CDC42 kinase 1, sequence (Q07912 whole entry, looked up): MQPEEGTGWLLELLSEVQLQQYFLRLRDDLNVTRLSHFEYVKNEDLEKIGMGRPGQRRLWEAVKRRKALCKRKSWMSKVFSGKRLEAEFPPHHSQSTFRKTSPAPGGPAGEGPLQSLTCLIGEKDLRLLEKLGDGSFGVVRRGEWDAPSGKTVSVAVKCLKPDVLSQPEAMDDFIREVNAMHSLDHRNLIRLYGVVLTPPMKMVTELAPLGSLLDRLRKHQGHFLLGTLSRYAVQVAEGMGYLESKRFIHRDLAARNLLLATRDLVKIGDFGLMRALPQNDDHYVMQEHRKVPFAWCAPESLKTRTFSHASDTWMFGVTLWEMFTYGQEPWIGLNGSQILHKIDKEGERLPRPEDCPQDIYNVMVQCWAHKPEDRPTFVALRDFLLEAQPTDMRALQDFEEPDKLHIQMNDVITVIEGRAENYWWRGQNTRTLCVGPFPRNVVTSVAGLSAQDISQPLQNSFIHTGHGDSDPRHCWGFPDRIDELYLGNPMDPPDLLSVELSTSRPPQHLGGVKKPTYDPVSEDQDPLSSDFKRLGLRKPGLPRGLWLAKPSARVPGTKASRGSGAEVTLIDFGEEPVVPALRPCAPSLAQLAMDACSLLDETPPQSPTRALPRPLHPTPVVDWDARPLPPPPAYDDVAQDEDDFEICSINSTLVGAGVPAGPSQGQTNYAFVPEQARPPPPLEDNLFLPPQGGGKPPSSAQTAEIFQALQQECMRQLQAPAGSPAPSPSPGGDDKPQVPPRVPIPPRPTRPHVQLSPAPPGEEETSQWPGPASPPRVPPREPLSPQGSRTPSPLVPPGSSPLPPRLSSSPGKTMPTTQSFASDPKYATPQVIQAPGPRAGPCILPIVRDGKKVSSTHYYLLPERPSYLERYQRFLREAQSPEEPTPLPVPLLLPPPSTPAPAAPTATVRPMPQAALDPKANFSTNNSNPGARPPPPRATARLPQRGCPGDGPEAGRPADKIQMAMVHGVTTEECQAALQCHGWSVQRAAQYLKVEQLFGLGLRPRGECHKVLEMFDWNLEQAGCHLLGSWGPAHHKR
# Protein kinase C theta type, sequence (Q04759 whole entry, looked up): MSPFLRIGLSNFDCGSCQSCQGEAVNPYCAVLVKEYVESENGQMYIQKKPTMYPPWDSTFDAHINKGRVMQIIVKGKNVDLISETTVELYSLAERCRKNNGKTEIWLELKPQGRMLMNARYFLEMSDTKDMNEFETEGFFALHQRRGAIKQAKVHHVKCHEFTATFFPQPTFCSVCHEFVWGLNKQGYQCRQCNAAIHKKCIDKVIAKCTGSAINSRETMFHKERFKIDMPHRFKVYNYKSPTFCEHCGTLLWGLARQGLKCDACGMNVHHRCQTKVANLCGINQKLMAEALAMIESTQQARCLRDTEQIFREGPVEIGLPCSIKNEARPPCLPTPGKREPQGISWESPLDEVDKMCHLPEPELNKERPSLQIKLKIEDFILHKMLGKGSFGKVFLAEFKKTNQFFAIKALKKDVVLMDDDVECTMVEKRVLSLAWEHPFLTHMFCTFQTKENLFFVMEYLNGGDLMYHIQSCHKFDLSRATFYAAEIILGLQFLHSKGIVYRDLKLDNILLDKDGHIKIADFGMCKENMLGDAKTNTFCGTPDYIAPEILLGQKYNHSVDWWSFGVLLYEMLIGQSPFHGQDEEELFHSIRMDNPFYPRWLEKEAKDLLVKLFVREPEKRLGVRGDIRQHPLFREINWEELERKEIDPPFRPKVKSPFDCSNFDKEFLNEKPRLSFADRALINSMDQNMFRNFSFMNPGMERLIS
# Tyrosine-protein kinase ABL1, sequence (P00519 whole entry): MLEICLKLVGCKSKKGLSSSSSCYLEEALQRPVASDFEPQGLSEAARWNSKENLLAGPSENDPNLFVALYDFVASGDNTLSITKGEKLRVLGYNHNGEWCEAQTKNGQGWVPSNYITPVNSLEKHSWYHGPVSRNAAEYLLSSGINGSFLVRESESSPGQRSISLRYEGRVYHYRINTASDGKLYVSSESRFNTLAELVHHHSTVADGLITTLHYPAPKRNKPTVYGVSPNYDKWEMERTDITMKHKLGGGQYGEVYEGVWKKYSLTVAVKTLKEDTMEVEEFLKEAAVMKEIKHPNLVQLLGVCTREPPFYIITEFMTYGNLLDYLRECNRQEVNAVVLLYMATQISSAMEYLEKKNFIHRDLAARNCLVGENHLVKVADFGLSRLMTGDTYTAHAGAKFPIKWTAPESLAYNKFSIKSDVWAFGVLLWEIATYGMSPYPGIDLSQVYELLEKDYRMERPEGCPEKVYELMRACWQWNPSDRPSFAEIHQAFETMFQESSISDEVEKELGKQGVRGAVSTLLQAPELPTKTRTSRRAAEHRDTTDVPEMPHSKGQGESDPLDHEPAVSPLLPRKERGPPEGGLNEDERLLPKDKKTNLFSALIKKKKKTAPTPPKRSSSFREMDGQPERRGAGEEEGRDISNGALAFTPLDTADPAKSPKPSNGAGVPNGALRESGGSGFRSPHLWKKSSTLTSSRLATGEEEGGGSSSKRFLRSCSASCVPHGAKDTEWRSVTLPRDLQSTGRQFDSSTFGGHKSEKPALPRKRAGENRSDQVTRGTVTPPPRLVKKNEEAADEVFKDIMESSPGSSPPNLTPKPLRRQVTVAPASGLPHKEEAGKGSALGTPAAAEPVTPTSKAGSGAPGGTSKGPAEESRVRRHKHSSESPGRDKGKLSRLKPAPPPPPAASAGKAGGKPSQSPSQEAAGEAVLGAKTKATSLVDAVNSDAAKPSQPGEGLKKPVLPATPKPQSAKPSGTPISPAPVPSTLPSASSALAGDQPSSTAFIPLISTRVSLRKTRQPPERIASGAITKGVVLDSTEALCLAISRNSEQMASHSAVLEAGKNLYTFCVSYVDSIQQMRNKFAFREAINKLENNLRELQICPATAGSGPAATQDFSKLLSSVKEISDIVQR
smiles,measurement,setting,value
COc1cc(Nc2nc(C)cc(-c3cnn4nc(OC)ccc34)n2)cc(C(F)(F)F)c1,% of control,Insulin receptor,71%
COc1cc(N(C)c2ccnc3ccc(C(F)(F)F)cc23)cc(OC)c1OC,% binding,[1],92%
same,% binding,Activated CDC42 kinase 1,89%
Nc1cnc(N2CCc3cc(S(=O)(=O)Nc4c(F)cc(Cl)cc4F)cc(N4CCCC4=O)c32)nc1 [TP-020n],% of control,[2],100%
CCC(=O)N1CC[C@H](Nc2ncnc3c2CN(c2cnc(OC)c(C(F)(F)F)c2)CC3)C1 [LENIOLISIB],pIC50,[3],< 4.52
Cc1cc(CN)cc(C)c1-c1ncn(C)c1-c1cncn1C,% activity,[4]; at 1 µM,> 90%
same,% activity,[4]; at 10 µM,> 80%
CC[C@@H]1[C@H](F)C(=O)N[C@@H]1COc1nccc2cc(C(N)=O)c(OC)cc12 [ZIMLOVISERTIB],% of inhibition,[5],-16.4%
CCC(=O)N1CCN(c2ccc(-n3c(=O)ccc4cnc5ccc(-c6cnc7ccccc7c6)cc5c43)cc2C(F)(F)F)CC1,% of control,[6],91%
CN(C)C/C=C/C(=O)Nc1ccc(C(=O)N2CCCC(Nc3ncc(Cl)c(-c4c[nH]c5ccccc45)n3)C2)cc1 (stereo not given),% of control,[7],82%
C=CC(=O)Nc1cc(-n2c(=O)ccc3cnc4ccc(-c5ccc(NS(C)(=O)=O)cc5)cc4c32)ccc1C,% of control,[8]; at 1 µM,96%
same,% of control,[8]; at 10 µM,97%
O[C@H]1CC[C@H](Nc2ncc3nc(Nc4c(F)cc(F)cc4F)n([C@H]4CCOC4)c3n2)CC1,% of control,[9],32%
Cc1cc(-c2ccnc(Nc3cnn(C)c3)n2)ccc1CNC(=O)N1CC(OC(C)C)C1,% of control,[10],42%
Cn1cc(-n2cnc3c(NCc4nc5cc(Cl)c(Cl)cc5[nH]4)nc(N4CCOCC4)nc32)cn1,% of inhibition,[11],-57.7%
